Source: ChEMBL document CHEMBL3044882, “Mosquito larvicidal studies of some chalcone analogues and their derived products: structureactivity relationship analysis” (2011)
Activity calls are given as the source filed them. The rule behind the calls is not given here.

Legend:
Culex quinquefasciatus [1] = experiment: Toxicity against third instar larve of Culex quinquefasciatus assessed as mortality at 100 ugcm'-3 after 24 hr; type: functional
Culex quinquefasciatus [2] = experiment: Toxicity against third instar larve of Culex quinquefasciatus after 24 hr; type: functional

Row | Compound | mortality (Culex quinquefasciatus [1]) | LC50 (Culex quinquefasciatus [2]) [umol/dm3]
1 | O=C(/C=C/c1ccco1)c1ccccc1O | 100% | 19
2 | O=C(/C=C/c1ccc2c(c1)OCO2)c1ccccc1O |  | 986.1
3 | O=C(/C=C/c1cccc([N+](=O)[O-])c1)c1ccccc1 |  | 994.4
4 | O=C(/C=C/c1ccc2c(c1)OCO2)c1ccccc1 |  | 5
5 | O=C(/C=C/c1ccc(Cl)cc1)c1ccccc1 [4-CHLORO CHALCONE] |  | 5
6 | O=C(/C=C/c1ccc([N+](=O)[O-])cc1)c1ccccc1O |  | 881.6
7 | O=C(/C=C/c1ccccc1)c1ccccc1O [2'-HYDROXYCHALCONE] | 100% | 55
8 | O=C(/C=C/C=C/c1ccccc1)c1ccccc1 |  | 437
9 | CC(/C=C/c1ccccc1)=N\Nc1ccc([N+](=O)[O-])cc1[N+](=O)[O-] | inactive | 2344.1
10 | O=C(/C=C/c1ccc([N+](=O)[O-])cc1)c1ccc(O)cc1 |  | 91
11 | O=[N+]([O-])c1ccc(NN=C(/C=C/c2ccccc2)/C=C/c2ccccc2)c([N+](=O)[O-])c1 | inactive | 2638.2
12 | O=C(/C=C/c1cccc([N+](=O)[O-])c1)c1ccc(O)cc1 |  | 89
13 | CC(/C=C/c1ccccc1)=N\NC(N)=O |  | 2087.9
14 | O=C(/C=C/c1ccccc1O)c1ccccc1 | 100% | 104
15 | O=[N+]([O-])c1ccc(N/N=C(/C=C/c2ccccc2)c2ccccc2)c([N+](=O)[O-])c1 | inactive | 2531.3
16 | C(=C\c1ccccc1)/C(=N/Nc1ccccc1)c1ccccc1 |  | 2134.5
17 | O=C(/C=C/c1ccc([N+](=O)[O-])cc1)c1ccccc1 |  | 959.5
18 | O=C(/C=C/c1cccc([N+](=O)[O-])c1)c1ccccc1O |  | 526.6
19 | O=C(/C=C/c1ccc(Cl)cc1)c1ccccc1O | 100% | 81
20 | COc1cccc(/C=C/C(=O)c2ccccc2O)c1-c1ccc(O)cc1 |  | 684.9
21 | O=C(/C=C/c1ccccc1)c1ccccc1 [CHALCONE] | 100% | 90
22 | O=C(/C=C/c1ccccc1)c1ccc(O)cc1 [4'-HYDROXYCHALCONE] |  | 238
23 | COc1cccc(/C=C/C(=O)c2ccccc2)c1-c1ccc(O)cc1 |  | 1474
24 | CC(/C=C/c1ccccc1)=N/O |  | 345
25 | O=C(/C=C/c1ccccc1)/C=C/c1ccccc1 |  | 2064.4
26 | O=C(/C=C/C=C/c1ccccc1)c1ccccc1O |  | 1121.1
27 | CC(/C=C/c1ccccc1)=N\Nc1ccccc1 |  | 465
